A short description of this data set: Metabolic stability testing in liver microsomes. Format: in vitro ADME. The following applies: mixed-gender human liver microsomes, 1 mg microsomal protein/mL, initial concentration 10 μM, 60 minutes at 37° C.; WO 2006/005484-substance 7 = 100%. As to the method: Subcellular fractions of different tissues can be prepared easily by ultracentrifugation. Most commonly these are prepared from the liver of animals and human donors to gain information about the potential hepatic clearance of compounds (first-pass elimination of drugs). Human or animal (e.g. dog, mouse, rat) subcellular fraction like liver microsomes, or possibly the fraction called S9 have therefore become a very commonly and widely used as an in vitro model to investigate mainly cytochrome P450 dependent phase I (but also phase II) metabolism that takes place in the liver.
In order to reflect the standard proportion of the enzymes in human and animal livers, liver microsomes are usually pooled from a number of […] of the same sex (or mixed-gender). By supplementing the liver microsomes with relevant cofactors and other components it is possible to investigate and distinguish between CYPs, flavin-containing monooxygenase (FMO) and UDP-glucuronosyltransferase (UGT) activities.
Selected compounds of the invention were tested for their stability in mixed-gender human liver microsomes and compared to pertinent prior art compounds.
Under the test conditions applied (1 mg microsomal protein/mL, initial concentration of 10 μM, and incubation for 60 minutes at 37° C.) the following normalized results were obtained.

Turning to `CCC(C)[C@H](NC(=O)Cc1ccccc1F)C(=O)N[C@]1(C(=O)N[C@H](C(=O)NC2CCC(O)CC2)C(C)CC)CCc2[nH]c3c(C(F)(F)F)cccc3c2C1` (stereo partly drawn) [Compound 73, (R)-3-{(S)-2-[2-(2-Fluoro-phenyl)-acetylamino]-3-methyl-pentanoylamino}-8-trifluoromethyl-2,3,4,9-tetrahydro-1H-carbazole-3-carboxylic acid [(S)-1-(4-hydroxy-cyclohexylcarbamoyl)-2-methyl-butyl]-amide], the Normalized microsomal stability is reported as 624%.
The same measure for `CCC(C)[C@H](NC(=O)Cc1ccccc1F)C(=O)N[C@]1(C(=O)N[C@H](C(=O)NCCCn2c[n+](C(C)(C)C)nn2)C(C)CC)CCc2[nH]c3c(C(F)(F)F)cccc3c2C1.O=C([O-])C(F)(F)F` (stereo partly drawn) [compound 188, 1-tert-butyl-4-(3-{(S)-2-[((R)-3-{(S)-2-[2-(2-fluoro-phenyl)-acetylamino]-3-methyl-pentanoylamino}-8-trifluoromethyl-2,3,4,9-tetrahydro-1H-carbazole-3-carbonyl)-amino]-3-methyl-pentanoylamino}-propyl)-4H-tetrazol-1-ium; Trifluoro-acetate]: 1259%.
Then `CCC(C)[C@H](NC(=O)NCc1ccccc1F)C(=O)N[C@]1(C(=O)N[C@H](C(=O)NNc2ccccc2)C(C)CC)CCc2[nH]c3c(C(F)(F)F)cccc3c2C1` (stereo partly drawn) [compound 244, (R)-3-{(S)-2-[3-(2-Fluoro-benzyl)-ureido]-3-methyl-pentanoylamino}-8-trifluoromethyl-2,3,4,9-tetrahydro-1H-carbazole-3-carboxylic acid [(S)-2-methyl-1-(N′-phenyl-hydrazinocarbonyl)-butyl]-amide], with 1096%; and `CC[C@H](C)[C@H](NC(=O)Cc1ccccc1F)C(=O)N[C@]1(C(=O)N[C@H](c2nc(-c3ccc(OC)cc3)cs2)[C@@H](C)CC)CCc2[nH]c3c(C(F)(F)F)cccc3c2C1` [compound 250, (R)-3-{(2S,3S)-2-[2-(2-Fluoro-phenyl)-acetylamino]-3-methyl-pentanoylamino}-8-trifluoromethyl-2,3,4,9-tetrahydro-1H-carbazole-3-carboxylic acid {(1S,2S)-1-[4-(4-methoxy-phenyl)-thiazol-2-yl]-2-methyl-butyl}-ami], with 1491%; and `CC[C@H](C)[C@H](NC(=O)Cc1ccccc1F)C(=O)N[C@]1(C(=O)N[C@H](c2nc(C(=O)O)cs2)[C@@H](C)CC)CCc2[nH]c3c(C(F)(F)F)cccc3c2C1` [compound 256, 2-{(1S,2S)-1-[((R)-3-{(2S,3S)-2-[2-(2-Fluoro-phenyl)-acetylamino]-3-methyl-pentanoylamino}-8-trifluoromethyl-2,3,4,9-tetrahydro-1H-carbazole-3-carbonyl)-amino]-2-methyl-butyl}-thiazole-4-carboxylic acid], with 1194%.
The same measure for `CCC(C)[C@H](NC(=O)Cc1cccnc1)C(=O)N[C@]1(C(=O)N[C@H](C(N)=S)C(C)CC)CCc2[nH]c3c(C(F)(F)F)cccc3c2C1` (stereo partly drawn) [compound 230, (R)-3-[(S)-3-Methyl-2-(2-pyridin-3-yl-acetylamino)-pentanoylamino]-8-trifluoromethyl-2,3,4,9-tetrahydro-1H-carbazole-3-carboxylic acid ((S)-2-methyl-1-thiocarbamoyl-butyl)-amide]: 1948%.
`CCC(C)[C@H](NC(=O)Cc1ccccc1F)C(=O)N[C@]1(C(=O)N[C@H](C(=O)NCN2CCOCC2)C(C)CC)CCc2[nH]c3c(C(F)(F)F)cccc3c2C1` (stereo partly drawn) [Compound 36] showed a Normalized microsomal stability of 774%.
The same measure for `CCC(C)[C@H](NC(=O)Cc1ccccc1F)C(=O)N[C@]1(C(=O)N[C@H](C(=O)NNC(N)=O)C(C)CC)CCc2[nH]c3c(C(F)(F)F)cccc3c2C1` (stereo partly drawn) [compound 164, (R)-3-{(S)-2-[2-(2-Fluoro-phenyl)-acetylamino]-3-methyl-pentanoylamino}-8-trifluoromethyl-2,3,4,9-tetrahydro-1H-carbazole-3-carboxylic acid [(S)-1-(N′-aminocarbonyl-hydrazinocarbonyl)-2-methyl-butyl]-amide]: 1230%.
The same measure for `CCNC(=O)NC[C@@H](NC(=O)[C@@]1(NC(=O)[C@@H](NC(=O)Cc2ccccc2F)C(C)CC)CCc2[nH]c3c(C(F)(F)F)cccc3c2C1)C(C)CC` (stereo partly drawn) [compound 167, (R)-3-{(S)-2-[2-(2-Fluoro-phenyl)-acetylamino]-3-methyl-pentanoylamino}-8-trifluoromethyl-2,3,4,9-tetrahydro-1H-carbazole-3-carboxylic acid {(S)-1-[(3-ethyl-ureido)-methyl]-2-methyl-butyl}-amide]: 274%; for `CCOC(=O)c1csc([C@@H](NC(=O)[C@@]2(NC(=O)[C@@H](NC(=O)NCc3ccccc3F)[C@@H](C)CC)CCc3[nH]c4c(C(F)(F)F)cccc4c3C2)[C@@H](C)CC)n1` [compound 258, 2-{(1S,2S)-1-[((R)-3-{(2S,3S)-2-[3-(2-Fluoro-benzyl)-ureido]-3-methyl-pentanoylamino}-8-trifluoromethyl-2,3,4,9-tetrahydro-1H-carbazole-3-carbonyl)-amino]-2-methyl-butyl}-thiazole-4-carboxylic acid ethyl ester]: 1215%; for `CCC(C)[C@H](NC(=O)Cc1ccccc1F)C(=O)N[C@]1(C(=O)N[C@H](C(=O)NNC(=O)c2ccccc2)C(C)CC)CCc2[nH]c3c(C(F)(F)F)cccc3c2C1` (stereo partly drawn) [compound 242, (R)-3-{(S)-2-[2-(2-Fluoro-phenyl)-acetylamino]-3-methyl-pentanoylamino}-8-trifluoromethyl-2,3,4,9-tetrahydro-1H-carbazole-3-carboxylic acid [(S)-1-(N′-benzoyl-hydrazinocarbonyl)-2-methyl-butyl]-amide]: 1322%.
With `CCC(C)[C@H](NC(=O)Cc1ccccc1F)C(=O)N[C@]1(C(=O)N[C@H](C(=O)Nc2ccc3ncccc3c2)C(C)CC)CCc2[nH]c3c(C(F)(F)F)cccc3c2C1` (stereo partly drawn) [compound 137, (R)-3-{(S)-2-[2-(2-Fluoro-phenyl)-acetylamino]-3-methyl-pentanoylamino}-8-trifluoromethyl-2,3,4,9-tetrahydro-1H-carbazole-3-carboxylic acid [(S)-2-methyl-1-(quinolin-6-ylcarbamoyl)-butyl]-amide], the Normalized microsomal stability worked out at 1296%.
Turning to `CCC(C)[C@H](NC(=O)Cc1ccncc1)C(=O)N[C@]1(C(=O)N[C@H](C(N)=S)C(C)CC)CCc2[nH]c3c(C(F)(F)F)cccc3c2C1` (stereo partly drawn) [compound 236, (R)-3-[(S)-3-Methyl-2-(2-pyridin-4-yl-acetylamino)-pentanoylamino]-8-trifluoromethyl-2,3,4,9-tetrahydro-1H-carbazole-3-carboxylic acid ((S)-2-methyl-1-thiocarbamoyl-butyl)-amide], the Normalized microsomal stability turned out to be 1328%.
On to `CCC(C)[C@H](NC(=O)NCc1ccc(OC)cc1)C(=O)N[C@]1(C(=O)N[C@H](C(N)=S)C(C)CC)CCc2[nH]c3c(C(F)(F)F)cccc3c2C1` (stereo partly drawn) [compound 239, (R)-3-{(S)-2-[3-(4-Methoxy-benzyl)-ureido]-3-methyl-pentanoylamino}-8-trifluoromethyl-2,3,4,9-tetrahydro-1H-carbazole-3-carboxylic acid ((S)-2-methyl-1-thiocarbamoyl-butyl)-amide], for which the Normalized microsomal stability is recorded as 307%.
The same measure for `CCC(C)[C@H](NC(=O)Cc1ccccc1F)C(=O)N[C@]1(C(=O)N[C@H](C(=S)NCCN2CCOCC2)C(C)CC)CCc2[nH]c3c(C(F)(F)F)cccc3c2C1` (stereo partly drawn) [Compound 54, (R)-3-{(S)-2-[2-(2-Fluoro-phenyl)-acetylamino]-3-methyl-pentanoylamino}-8-trifluoromethyl-2,3,4,9-tetrahydro-1H-carbazole-3-carboxylic acid [(S)-2-methyl-1-(2-morpholin-4-yl-ethylthiocarbamoyl)-butyl]-amide]: 611%; for `CCC(C)[C@H](NC(=O)Cc1ccccc1F)C(=O)N[C@]1(C(=O)N[C@H](C(=O)NNc2ccccc2)C(C)CC)CCc2[nH]c3c(C(F)(F)F)cccc3c2C1` (stereo partly drawn) [compound 144, (R)-3-{(S)-2-[2-(2-Fluoro-phenyl)-acetylamino]-3-methyl-pentanoylamino}-8-trifluoromethyl-2,3,4,9-tetrahydro-1H-carbazole-3-carboxylic acid [(S)-2-methyl-1-(N′-phenyl-hydrazinocarbonyl)-butyl]-amide]: 1352%; for `CCNC(=S)NC[C@@H](NC(=O)[C@@]1(NC(=O)[C@@H](NC(=O)Cc2ccccc2F)C(C)CC)CCc2[nH]c3c(C(F)(F)F)cccc3c2C1)C(C)CC` (stereo partly drawn) [compound 173, (R)-3-{(S)-2-[2-(2-Fluoro-phenyl)-acetylamino]-3-methyl-pentanoylamino}-8-trifluoromethyl-2,3,4,9-tetrahydro-1H-carbazole-3-carboxylic acid {(S)-1-[(3-ethyl-thioureido)-methyl]-2-methyl-butyl}-amide]: 285%.
`CCC(C)[C@H](NC(=O)Cc1ccccc1F)C(=O)N[C@]1(C(=O)N[C@H](C(=O)NCc2cncnc2)C(C)CC)CCc2[nH]c3c(C(F)(F)F)cccc3c2C1` (stereo partly drawn) [compound 183] gave a Normalized microsomal stability of 1350%.

The record behind these values is patent US8541462B2, “Tetrahydrocarbazole derivatives as ligands of G-protein coupled receptors” (AEterna Zentaris GmbH, priority 2007, dated 2013).
